pIC50, pKd: −log10 of the molar value. Converted amounts (≈) assume the structure as drawn.
Experiments:
[1] = molecular target: T1, Nuclear receptor subfamily 1 group I member 2 (Homo sapiens, UniProt O75469); assay: Activation of human PXR at 1 uM relative to control; assay type: toxicity
T1 sequence (O75469 whole entry): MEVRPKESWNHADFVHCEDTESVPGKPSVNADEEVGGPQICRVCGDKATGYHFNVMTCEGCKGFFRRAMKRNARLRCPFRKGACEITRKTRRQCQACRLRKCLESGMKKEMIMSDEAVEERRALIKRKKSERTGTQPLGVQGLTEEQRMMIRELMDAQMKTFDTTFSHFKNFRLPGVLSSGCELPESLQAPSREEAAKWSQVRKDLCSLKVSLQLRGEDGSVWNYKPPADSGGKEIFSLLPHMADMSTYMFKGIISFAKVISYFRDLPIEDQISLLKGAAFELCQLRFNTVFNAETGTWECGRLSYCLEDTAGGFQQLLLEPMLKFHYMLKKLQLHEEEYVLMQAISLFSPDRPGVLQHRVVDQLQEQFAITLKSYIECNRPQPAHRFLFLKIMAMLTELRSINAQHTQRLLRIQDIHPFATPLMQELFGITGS

[2] = molecular target: T2, Nuclear receptor ROR-beta (Homo sapiens, UniProt Q92753); assay: Inverse agonist activity at human RORbeta assessed as dissociation constant by thermofluor assay
T2 sequence (Q92753 whole entry): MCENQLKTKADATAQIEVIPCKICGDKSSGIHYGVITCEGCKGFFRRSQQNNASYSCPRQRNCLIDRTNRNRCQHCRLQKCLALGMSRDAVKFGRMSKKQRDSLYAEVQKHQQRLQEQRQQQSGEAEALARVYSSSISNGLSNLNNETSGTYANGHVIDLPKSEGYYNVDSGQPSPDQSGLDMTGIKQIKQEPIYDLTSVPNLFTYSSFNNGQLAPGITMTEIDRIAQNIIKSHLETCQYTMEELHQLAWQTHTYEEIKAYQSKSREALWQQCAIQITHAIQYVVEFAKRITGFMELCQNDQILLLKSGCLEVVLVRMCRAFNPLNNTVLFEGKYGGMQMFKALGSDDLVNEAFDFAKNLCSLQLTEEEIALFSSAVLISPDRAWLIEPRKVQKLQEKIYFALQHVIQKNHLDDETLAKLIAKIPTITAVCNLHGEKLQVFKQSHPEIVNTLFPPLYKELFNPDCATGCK

[3] = molecular target: T3, Nuclear receptor ROR-gamma (Homo sapiens, UniProt P51449); assay: Inverse agonist activity at RORgammat in human whole blood assessed as IL-17A production incubated for 1 hrs by ELISA analysis; assay type: tissue-based
T3 sequence (P51449 whole entry): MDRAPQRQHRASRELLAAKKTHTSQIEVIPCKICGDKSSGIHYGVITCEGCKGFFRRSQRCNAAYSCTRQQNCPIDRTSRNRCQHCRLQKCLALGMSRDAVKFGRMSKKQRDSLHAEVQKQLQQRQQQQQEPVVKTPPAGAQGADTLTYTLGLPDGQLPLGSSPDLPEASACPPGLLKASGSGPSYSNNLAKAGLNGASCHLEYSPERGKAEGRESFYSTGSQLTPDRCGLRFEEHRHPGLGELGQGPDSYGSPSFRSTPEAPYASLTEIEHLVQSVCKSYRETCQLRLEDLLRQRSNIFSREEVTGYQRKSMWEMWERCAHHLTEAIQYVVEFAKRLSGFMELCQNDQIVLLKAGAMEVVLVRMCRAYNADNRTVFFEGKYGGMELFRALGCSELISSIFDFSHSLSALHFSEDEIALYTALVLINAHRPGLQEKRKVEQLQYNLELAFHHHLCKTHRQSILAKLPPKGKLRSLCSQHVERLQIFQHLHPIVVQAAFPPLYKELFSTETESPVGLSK

[4] = Aqueous solubility of the compound at pH 7; assay type: physicochemical; settings: aqueous solution
[5] = Aqueous solubility of the compound at pH 2; assay type: physicochemical; settings: aqueous solution
PXR [6] = molecular target: T4, PXR (Homo sapiens, UniProt O75469); assay: Activation of human PXR at 5 uM relative to control; assay type: toxicity; settings: read-out: Activity
T4 sequence (O75469 whole entry): T1 sequence (O75469 whole entry)

[7] = molecular target: T3, Nuclear receptor ROR-gamma; assay: Inverse agonist activity at N-terminal his-tagged wild type human RORgammat LBD domain expressed in Escherichia coli assessed as dissociation constant by thermofluor assay
[8] = molecular target: T3, Nuclear receptor ROR-gamma; assay: Inverse agonist activity at human RORgammat by mammalian 1-hybrid assay
Cytochrome P450 3A4 = Cytochrome P450 3A4 (Homo sapiens, UniProt P08684); assay: Induction of CYP3A4 in human hepatocytes at 10 uM relative to control; assay type: ADME, cell-based, Hepatocyte
[9] = Solubility of compound in FaSSIF; assay type: physicochemical
[10] = Solubility of compound in SGF; assay type: physicochemical
PXR [11] = molecular target: T4, PXR; assay: Activation of human PXR at 10 uM relative to control; assay type: toxicity; settings: read-out: Activity
[12] = Cmax in male Sprague-Dawley rat at 1 mg/kg, iv or 5 mg/kg, po measured 24 hrs post dose by LC-MS/MS analysis; assay type: ADME, organism-based; settings: in vivo
[13] = Drug uptake in male rat plasma at 50 mg/kg, po after 5 days; assay type: ADME, organism-based; settings: in vivo, 120 h, time 5 day

Chain of Cytochrome P450 3A4 (P08684 whole entry): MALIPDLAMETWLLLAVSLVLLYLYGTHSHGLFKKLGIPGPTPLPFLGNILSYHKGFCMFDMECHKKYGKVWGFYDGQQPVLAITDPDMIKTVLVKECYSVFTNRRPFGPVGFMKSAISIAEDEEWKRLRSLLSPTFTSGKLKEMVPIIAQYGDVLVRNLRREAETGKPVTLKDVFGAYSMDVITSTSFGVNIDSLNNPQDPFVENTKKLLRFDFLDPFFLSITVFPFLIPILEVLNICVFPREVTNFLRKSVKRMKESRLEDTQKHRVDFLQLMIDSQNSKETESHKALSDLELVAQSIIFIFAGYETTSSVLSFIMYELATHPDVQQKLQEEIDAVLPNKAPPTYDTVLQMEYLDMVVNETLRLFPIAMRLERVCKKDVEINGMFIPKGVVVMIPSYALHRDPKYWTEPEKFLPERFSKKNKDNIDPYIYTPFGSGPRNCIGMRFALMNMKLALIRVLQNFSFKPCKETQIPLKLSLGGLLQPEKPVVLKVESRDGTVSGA

SMILES | pKd [2] | solubility [4] | solubility [5] | pKd [7] | pIC50 [8] | Activity (Cytochrome P450 3A4) | solubility [9] | solubility [10] | Drug uptake [13] | Activity [1] | pIC50 [3] | activity at 5 µM (PXR [6]) | activity at 10 µM (PXR [11]) | Cmax [12]
C[C@H](NS(=O)(=O)c1ccc(-c2sc(C(=O)NCC(C)(C)O)nc2C(=O)N2CCC(F)CC2)c(Cl)c1Cl)C(F)(F)F | – | – | – | – | – | – | – | – | – | 13% | – | – | – | –
C[C@H]1C[C@@H](F)CCN1C(=O)c1nc(C(=O)NCC(C)(C)O)sc1-c1ccc(C(O)(C(F)(F)F)C(F)(F)F)c(Cl)c1Cl | 6.00 | < 4 µM | < 4 µM | – | – | – | – | – | – | 14% | 6.68 | 40% | – | –
CC(C)(O)CNC(=O)c1nc(C(=O)N2CCC(F)CC2)c(-c2ccc(C(O)(C(F)(F)F)C(F)(F)F)c(Cl)c2Cl)s1 | 5.72 | < 4 µM | < 4 µM | – | – | – | – | – | – | 1.5% | 6.05 | 14% | – | –
C[C@H]1CC(F)(F)CN1C(=O)c1nc(C(=O)NCC(C)(C)O)sc1-c1ccc(C(O)(C(F)(F)F)C(F)(F)F)c(Cl)c1Cl | 5.64 | < 4 µM | < 4 µM | – | – | – | – | – | – | 27% | 6.92 | 50% | – | –
CCN(CC)C(=O)c1nc(C(=O)N2C[C@H](O)C[C@H](O)C2)sc1-c1ccc(C(O)(C(F)(F)F)C(F)(F)F)c(Cl)c1Cl | 4.89 | 41 µM (≈ 26.2 µg/mL) | 52 µM (≈ 33.2 µg/mL) | – | – | – | – | – | – | 2.7% | 6.72 | 4.7% | – | 100 nM
Cc1c(C(N)=O)cc(-c2ccc(C(O)(C(F)(F)F)C(F)(F)F)cc2)n1CC1CCCCC1 | – | – | – | – | 5.77 | – | – | – | – | – | – | – | – | –
Cc1c(S(N)(=O)=O)cc(-c2ccc(S(=O)(=O)NC(C)(C)C)cc2)n1CC1CCCCC1 | – | – | – | – | 5.75 | – | – | – | – | – | – | – | – | –

The next lines start with results.

pKd [2] | solubility [4] | solubility [5] | pKd [7] | pIC50 [8] | Activity (Cytochrome P450 3A4) | solubility [9] | solubility [10] | Drug uptake [13] | SMILES | Activity [1] | pIC50 [3] | activity at 5 µM (PXR [6]) | activity at 10 µM (PXR [11]) | Cmax [12]
5.64 | – | – | 9.40 | 8.03 | – | – | – | – | CN(C(=O)c1nc(C(=O)NCC(C)(C)O)sc1-c1ccc(C(O)(C(F)(F)F)C(F)(F)F)c(Cl)c1Cl)C1CCC1 | 1.9% | – | 9.1% | – | –
4.82 | 86 µM (≈ 48.8 µg/mL) | 35 µM (≈ 19.9 µg/mL) | – | – | 16% | 250 µM (≈ 142 µg/mL) | 63 µM (≈ 35.8 µg/mL) | – | Cc1cc(C(O)(C(F)(F)F)C(F)(F)F)ccc1-c1sc(C(=O)NCC(C)(C)O)nc1C(=O)N1CCC[C@@H]1C | 12% | 6.28 | – | 31% | –
4.89 | 13 µM (≈ 7.85 µg/mL) | 12 µM (≈ 7.24 µg/mL) | – | – | 33% | 99 µM (≈ 59.7 µg/mL) | 22 µM (≈ 13.3 µg/mL) | – | C[C@H]1CCCN1C(=O)c1nc(C(=O)NCC(C)(C)O)sc1-c1ccc(C(O)(C(F)(F)F)C(F)(F)F)cc1C(F)F | 27% | – | – | 74% | –
5.46 | < 4 µM | < 4 µM | – | – | 16% | – | – | Active | CCN(CC)C(=O)c1nc(C(=O)NCC(C)(C)O)sc1-c1ccc(C(O)(C(F)(F)F)C(F)(F)F)c(Cl)c1Cl | 32% | – | 76% | – | –
5.96 | – | – | 9.70 | – | – | – | – | – | CCN(C(=O)c1nc(C(=O)NCC(C)(C)O)sc1-c1ccc(C(O)(C(F)(F)F)C(F)(F)F)c(Cl)c1Cl)C1CCC1 | 10% | – | 21% | – | –
5.85 | < 4 µM | < 4 µM | 9.60 | – | 10% | 4.6 µM (≈ 2.68 µg/mL) | < 4 µM | – | Cc1cc(C(O)(C(F)(F)F)C(F)(F)F)ccc1-c1sc(C(=O)NCC(C)(C)O)nc1C(=O)N1CCCC[C@@H]1C | 8% | 6.80 | – | 24% | –
6.07 | < 4 µM | < 4 µM | – | – | – | 14 µM (≈ 8.65 µg/mL) | < 4 µM | – | C[C@H]1CCCCN1C(=O)c1nc(C(=O)NCC(C)(C)O)sc1-c1ccc(C(O)(C(F)(F)F)C(F)(F)F)cc1C(F)F | 28% | – | – | 84% | –
5.31 | < 4 µM | 6.3 µM (≈ 3.7 µg/mL) | 9.20 | – | 11% | 130 µM (≈ 76.4 µg/mL) | 6.3 µM (≈ 3.7 µg/mL) | – | C[C@H]1CCCN1C(=O)c1nc(C(=O)NCC(C)(C)O)sc1-c1ccc(C(O)(C(F)(F)F)C(F)(F)F)cc1Cl | 3.6% | 6.62 | – | 27% | –
6.37 | < 4 µM | < 4 µM | 10.24 | – | – | 77 µM (≈ 46.4 µg/mL) | < 4 µM | – | C[C@H]1CCCCN1C(=O)c1nc(C(=O)NCC(C)(C)O)sc1-c1ccc(C(O)(C(F)(F)F)C(F)(F)F)cc1Cl | 13% | 7.09 | – | 25% | –

Reference: ChEMBL document CHEMBL6134884, “Identification of JNJ-61803534, a RORγt Inverse Agonist for the Treatment of Psoriasis” (J Med Chem, 2025)
